Results published in ChEMBL document CHEMBL5042552, “Site-Specific Isopeptide Bond Formation: A Powerful Tool for the Generation of Potent and Nontoxic Antimicrobial Peptides” (J Med Chem, 2022).
Calls of active or inactive are those of the source. The rule behind the calls is not given here. Starred links: 1 amine or outer side, 2 acyl side, 3 side chain; linkers in the order of their positions; H or OH if unused. Positions of bridges follow the written chain, without caps; N, C: chain ends. Non-standard residues stand in square brackets, D forms with d. Residues, ends and D or L forms follow the SMILES beside them. Groups on a side chain read outwards from the residue. Chains are numbered I, II in the order given. εLys = N[C@@H](CCCCN[*:1])C(=O)[*:2]

Key:
[1] = Hemolytic activity in human erythrocytes at 2.5 to 80 uM incubated for 1 hr by microplate reader assay; type: toxicity, cell-based; conditions: erythrocyte, dose 2.5-80 µM
HEK293 = assay: Cytotoxicity against HEK293 cells assessed as reduction in cell viability at 10 to 100 uM incubated for 24 hrs by XTT assay; type: toxicity, cell-based; conditions: human, hek293, 24 h, dose 10-100 µM
RAW264.7 [2] = assay: Cytotoxicity against mouse RAW264.7 cells assessed as reduction in cell viability at 10 to 100 uM incubated for 24 hrs by XTT assay; type: toxicity, cell-based; conditions: raw264.7, 24 h, dose 10-100 µM
Trypsin = Trypsin (Homo sapiens, UniProt P07477+P07478+P35030); assay: Stability of compound assessed as trypsin (unknown origin) mediated compound degradation at 100 uM measured after 30 mins by RP-HPLC method; type: ADME, protein assay; conditions: 0.5 h
[3] = Stability in human plasma after 2 hrs by RP-HPLC method; type: ADME, cell-free
Escherichia coli = assay: Induction of membrane permeabilization in Escherichia coli at MIC concentration by SYTOX-green staining based flow cytometry method; type: functional
[4] = Hemolytic activity in human erythrocytes at 12.5 uM incubated for 1 hr by microplate reader assay; type: toxicity, cell-based; conditions: erythrocyte
Pseudomonas aeruginosa = assay: Induction of membrane permeabilization in Pseudomonas aeruginosa at MIC concentration by SYTOX-green staining based flow cytometry method; type: functional
Staphylococcus aureus = assay: Induction of membrane permeabilization in Staphylococcus aureus at MIC concentration by SYTOX-green staining based flow cytometry method; type: functional
Bacillus subtilis = assay: Induction of membrane permeabilization in Bacillus subtilis at MIC concentration by SYTOX-green staining based flow cytometry method; type: functional
Cell membrane [5] = assay: Disruption of membrane integrity in Pseudomonas aeruginosa at MIC by […] green dye based confocal microscopy analysis
Cell membrane [6] = assay: Disruption of membrane integrity in Escherichia coli at MIC by […] green dye based confocal microscopy analysis
Cell membrane [7] = assay: Disruption of membrane integrity in Staphylococcus aureus at MIC by […] green dye based confocal microscopy analysis
Cell membrane [8] = assay: Disruption of membrane integrity in Bacillus subtilis at MIC by […] green dye based confocal microscopy analysis
RAW264.7 [9] = assay: Cytotoxicity against mouse RAW264.7 cells assessed as reduction in cell viability at 100 uM incubated for 24 hrs by XTT assay; type: toxicity, cell-based; conditions: raw264.7, 24 h
[10] = Hemolytic activity in human erythrocytes at 80 uM incubated for 1 hr by microplate reader assay; type: toxicity, cell-based; conditions: erythrocyte

| Structure (SMILES) | Stability (Trypsin) | Stability [3] | Activity [1] | Activity (HEK293) | Activity (RAW264.7 [2]) | Activity (Escherichia coli) [%] | Activity [4] | Activity (Pseudomonas aeruginosa) [%] | Activity (Staphylococcus aureus) [%] | Activity (Bacillus subtilis) [%] | Activity (Cell membrane [5]) | Activity (Cell membrane [6]) | Activity (Cell membrane [7]) | Activity (Cell membrane [8]) | Activity (RAW264.7 [9]) | Activity [10] |
| --- | --- | --- | --- | --- | --- | --- | --- | --- | --- | --- | --- | --- | --- | --- | --- | --- |
| CC(C)C[C@H](NC(=O)[C@H](CC(C)C)NC(=O)[C@H](CCCCN)NC(=O)[C@H](CC(C)C)NC(=O)[C@H](CC(C)C)NC(=O)[C@H](CCCCN)NC(=O)[C@H](CCCCN)NC(=O)[C@H](CC(C)C)NC(=O)[C@H](CC(C)C)NC(=O)[C@H](CCCCN)NC(=O)[C@@H](N)CCCCNC(=O)[C@H](CC(C)C)NC(=O)[C@H](CC(C)C)NC(=O)[C@H](CCCCN)NC(=O)[C@@H](N)CC(C)C)C(N)=O (H-K([Leu-Leu-Lys-Leu])KLLKKLLKLL-NH2) | Unstable | Stable | Non-Toxic | Toxic | Toxic |  |  |  |  |  |  |  |  |  |  |  |
| CC(C)C[C@H](NC(=O)[C@H](CC(C)C)NC(=O)[C@H](CCCCN)NC(=O)[C@H](CC(C)C)NC(=O)[C@H](CC(C)C)NC(=O)[C@H](CCCCN)NC(=O)[C@H](CCCCN)NC(=O)[C@H](CC(C)C)NC(=O)[C@H](CC(C)C)NC(=O)[C@H](CCCCN)NC(=O)[C@H](CCCCN)NC(=O)[C@H](CC(C)C)NC(=O)[C@H](CC(C)C)NC(=O)[C@H](CCCCN)NC(=O)[C@@H](N)CC(C)C)C(N)=O (H-LKLLKKLLKKLLKLL-NH2) | Unstable | Stable |  | Toxic | Toxic | 98 | Toxic | 98 | 46 | 41 | inactive | inactive | inactive | inactive |  |  |
| CC(C)C[C@H](NC(=O)[C@H](CC(C)C)NC(=O)[C@H](CCCCN)NC(=O)[C@H](CC(C)C)NC(=O)[C@H](CC(C)C)NC(=O)[C@H](CCCCN)NC(=O)[C@@H](N)CCCCNC(=O)[C@H](CC(C)C)NC(=O)[C@H](CC(C)C)NC(=O)[C@H](CCCCN)NC(=O)[C@H](CCCCN)NC(=O)[C@H](CC(C)C)NC(=O)[C@H](CC(C)C)NC(=O)[C@H](CCCCN)NC(=O)[C@@H](N)CC(C)C)C(N)=O (H-LKLLKKLL[εLys]KLLKLL-NH2) |  | Stable |  |  |  | 98 |  | 98 | 89 | 98 | Active | Active | Active | Active | Non-Toxic | Non-Toxic |
| CC(C)C[C@H](NC(=O)[C@H](CC(C)C)NC(=O)[C@H](CCCCN)NC(=O)[C@H](CC(C)C)NC(=O)[C@H](CC(C)C)NC(=O)[C@H](CCCCN)NC(=O)[C@H](CCCCN)NC(=O)[C@H](CC(C)C)NC(=O)[C@H](CC(C)C)NC(=O)[C@@H](N)CCCCNC(=O)[C@H](CCCCN)NC(=O)[C@H](CC(C)C)NC(=O)[C@H](CC(C)C)NC(=O)[C@H](CCCCN)NC(=O)[C@@H](N)CC(C)C)C(N)=O (I: H-KLLKKLLKLL-NH2 / II: H-LKLLK; amide I:1-II:C) | Unstable | Stable | Non-Toxic | Toxic | Toxic |  |  |  |  |  |  |  |  |  |  |  |

Continued, in another order:

| Stability (Trypsin) | Stability [3] | Structure (SMILES) | Activity [1] | Activity (HEK293) | Activity (RAW264.7 [2]) | Activity (Escherichia coli) [%] | Activity [4] | Activity (Pseudomonas aeruginosa) [%] | Activity (Staphylococcus aureus) [%] | Activity (Bacillus subtilis) [%] | Activity (Cell membrane [5]) | Activity (Cell membrane [6]) | Activity (Cell membrane [7]) | Activity (Cell membrane [8]) | Activity (RAW264.7 [9]) | Activity [10] |
| --- | --- | --- | --- | --- | --- | --- | --- | --- | --- | --- | --- | --- | --- | --- | --- | --- |
| Unstable | Stable | CC(C)C[C@H](NC(=O)[C@H](CC(C)C)NC(=O)[C@H](CCCCN)NC(=O)[C@H](CC(C)C)NC(=O)[C@H](CC(C)C)NC(=O)[C@H](CCCCN)NC(=O)[C@H](CCCCN)NC(=O)[C@H](CC(C)C)NC(=O)[C@H](CC(C)C)NC(=O)[C@H](CCCCN)NC(=O)[C@H](CCCCN)NC(=O)[C@H](CC(C)C)NC(=O)[C@H](CC(C)C)NC(=O)[C@@H](N)CCCCNC(=O)[C@@H](N)CC(C)C)C(N)=O (H-K(Leu)LLKKLLKKLLKLL-NH2) | Non-Toxic | Toxic | Toxic |  |  |  |  |  |  |  |  |  |  |  |
| Unstable | Stable | CC(C)C[C@H](NC(=O)[C@H](CC(C)C)NC(=O)[C@@H](N)CCCCNC(=O)[C@H](CC(C)C)NC(=O)[C@H](CC(C)C)NC(=O)[C@H](CCCCN)NC(=O)[C@H](CCCCN)NC(=O)[C@H](CC(C)C)NC(=O)[C@H](CC(C)C)NC(=O)[C@H](CCCCN)NC(=O)[C@H](CCCCN)NC(=O)[C@H](CC(C)C)NC(=O)[C@H](CC(C)C)NC(=O)[C@H](CCCCN)NC(=O)[C@@H](N)CC(C)C)C(N)=O (H-LKLLKKLLKKLL[εLys]LL-NH2) |  | Toxic | Toxic |  |  |  |  |  |  |  |  |  |  |  |
| Unstable | Stable | CC(C)C[C@H](NC(=O)[C@H](CC(C)C)NC(=O)[C@H](CCCCN)NC(=O)[C@H](CC(C)C)NC(=O)[C@H](CC(C)C)NC(=O)[C@@H](N)CCCCNC(=O)[C@H](CCCCN)NC(=O)[C@H](CC(C)C)NC(=O)[C@H](CC(C)C)NC(=O)[C@H](CCCCN)NC(=O)[C@H](CCCCN)NC(=O)[C@H](CC(C)C)NC(=O)[C@H](CC(C)C)NC(=O)[C@H](CCCCN)NC(=O)[C@@H](N)CC(C)C)C(N)=O (H-LKLLKKLLK[εLys]LLKLL-NH2) | Non-Toxic |  |  |  |  |  |  |  |  |  |  |  | Non-Toxic | Non-Toxic |
